The assay concerns uPA mRNA. Description: Northern blot of uPA mRNA in MCF-7 cells treated with demethylating agent (Example 6). Format: cell-based, human. The note with it: 25 uM, ten days, vs vehicle alone. The procedure:
Human breast cancer cells MCF-7 were maintained in culture and at 65% confluent cells were treated with vehicle alone (MCF-7) or 25 uM of the demethylating agent 5 azc (MCF-7+5azc) for ten days. MDA-231 cells were used as positive control (MDA-231) for uPA expression. At the end of this period 20 μg of cellular RNA from each group were electophoresed on a 1.1% agarose/formaldehyde gel and […] a ^32p labeled 18 S RNA probe. All blots (FIG. 1A) were quantified by densitometric scanning (FIG. 1B). Significant difference from control cells is represented by an asterisk (p<0.05).

Structures are written as SMILES.

On to `Nc1ncn([C@@H]2O[C@H](CO)[C@@H](O)[C@H]2O)c(=O)n1` [5-azc], for which the “uPA mRNA (Northern blot, densitometric scanning)” value was “marked induction”.

(Values after patent US7316900B2, “Methylated nucleotide regulation of gene expression” (Quebepharma Recherche, Inc., priority 2000, dated 2008).)
